Test results: the CheMixHub viscosity set
“And” between values parts separate entries of the source, which are not always exact repeats. Identical values can stand only once.

Assay: xn = mol fraction of the nth substance listed

CC(Cl)(Cl)Cl + CC1CCCO1
298.15 K, 101.33 kPa
Details | viscosity [mPa·s]
x1 = 0.099 | 0.5033
x1 = 0.2 | 0.5324
x1 = 0.299 | 0.5617
x1 = 0.398 | 0.5917
x1 = 0.5 | 0.6234
x1 = 0.6 | 0.655
x1 = 0.7 | 0.6873
x1 = 0.8 | 0.7209
x1 = 0.869 | 0.7447

CC(Cl)(Cl)Cl + O=C1CCCCC1
298.15 K, 101.33 kPa
Details | viscosity [mPa·s]
x1 = 0.053 | 1.896
x1 = 0.099 | 1.812
x1 = 0.151 | 1.725
x1 = 0.252 | 1.568
x1 = 0.352 | 1.43
x1 = 0.452 | 1.305
x1 = 0.551 | 1.192
x1 = 0.6 | 1.141
x1 = 0.651 | 1.089
x1 = 0.7 | 1.041
x1 = 0.8 | 0.9504
x1 = 0.861 | 0.8988

CC(C)C1CCCCC1 + CCCCCCCCCCCCC
viscosity [mPa·s], 100 kPa
Details | x1 = 0.1077 | x1 = 0.1971 | x1 = 0.3025 | x1 = 0.3985 | x1 = 0.5016 | x1 = 0.5996 | x1 = 0.695 | x1 = 0.799 | x1 = 0.8956
293.15 K | 1.773 | 1.7 | 1.619 | 1.549 | 1.473 | 1.4 | 1.328 | 1.253 | 1.18
298.15 K | 1.615 | 1.551 | 1.48 | 1.419 | 1.351 | 1.287 | 1.224 | 1.158 | 1.094
303.15 K | 1.476 | 1.421 | 1.358 | 1.304 | 1.245 | 1.188 | 1.134 | 1.075 | 1.017
308.15 K | 1.356 | 1.308 | 1.253 | 1.205 | 1.153 | 1.103 | 1.055 | 1.003 | 0.95
313.15 K | 1.251 | 1.209 | 1.16 | 1.118 | 1.072 | 1.028 | 0.984 | 0.938 | 0.889
318.15 K | 1.16 | 1.123 | 1.078 | 1.041 | 1 | 0.961 | 0.922 | 0.88 | 0.836
323.15 K | 1.078 | 1.045 | 1.005 | 0.972 | 0.935 | 0.9 | 0.865 | 0.827 | 0.787

O=CO + CCC(C)=O
viscosity [mPa·s], 101 kPa
Details | x1 = 0.1013 | x1 = 0.2006 | x1 = 0.3007 | x1 = 0.3962 | x1 = 0.4985 | x1 = 0.602 | x1 = 0.7014 | x1 = 0.7972 | x1 = 0.9011
298.15 K | 0.4271 | 0.4706 | 0.5282 | 0.5841 | 0.6726 | 0.7807 | 0.9125 | 1.078 | 1.309
308.15 K | 0.3863 | 0.4247 | 0.4703 | 0.5186 | 0.5915 | 0.6799 | 0.787 | 0.9165 | 1.095
318.15 K | 0.3479 | 0.3801 | 0.4183 | 0.458 | 0.5195 | 0.5896 | 0.6771 | 0.7866 | 0.9246

Cc1ccc(O)cc1C + CC12CCC(CC1=O)C2(C)C
101.33 kPa, x1 = 0.7
Details | viscosity [mPa·s]
293.15 K | 25.37
298.15 K | 18.86
303.15 K | 14.61
308.15 K | 11.42
313.15 K | 9.026
318.15 K | 7.494
323.15 K | 6.189

CC(Cl)(Cl)Cl + C1CCOC1
303.15 K, 101 kPa
Details | viscosity [mPa·s]
x2 = 0.0731 | 0.7289
x2 = 0.1213 | 0.7262
x2 = 0.2262 | 0.7112
x2 = 0.3894 | 0.6687
x2 = 0.4716 | 0.6424
x2 = 0.5677 | 0.6104
x2 = 0.6475 | 0.5834
x2 = 0.7415 | 0.5513
x2 = 0.8139 | 0.5271
x2 = 0.866 | 0.51

O=C(O)CC(O)(CC(=O)O)C(=O)O + C[N+](C)(C)Cc1ccccc1.[Cl-]
Details | viscosity [mPa·s]
323.1 K, 101 kPa, x2 = 0.5 | 88750

CC(Cl)(Cl)Cl + COCC(C)O
298.15 K, 101.33 kPa
Details | viscosity [mPa·s]
x1 = 0.101 | 1.508
x1 = 0.2 | 1.362
x1 = 0.3 | 1.232
x1 = 0.4 | 1.119
x1 = 0.501 | 1.021
x1 = 0.601 | 0.9385
x1 = 0.7 | 0.8715
x1 = 0.72 | 0.8596
x1 = 0.837 | 0.8044
x1 = 0.908 | 0.785

CC(Cl)(Cl)Cl + C1COCCO1
101.33 kPa
Details | viscosity
298.15 K, x1 = 0.102 | 1.141 mPa·s
298.15 K, x1 = 0.201 | 1.097 mPa·s
298.15 K, x1 = 0.3 | 1.057 mPa·s
298.15 K, x1 = 0.4 | 1.016 mPa·s
298.15 K, x1 = 0.5 | 0.9762 mPa·s and 0.9767 mPa·s
298.15 K, x1 = 0.599 | 0.938 mPa·s
298.15 K, x1 = 0.7 | 0.9003 mPa·s
298.15 K, x1 = 0.8 | 0.8635 mPa·s
298.15 K, x1 = 0.862 | 0.8404 mPa·s
303.15 K, x2 = 0.0725 | 0.7541 mPa·s
303.15 K, x2 = 0.1135 | 0.771 mPa·s
303.15 K, x2 = 0.2041 | 0.8089 mPa·s
303.15 K, x2 = 0.336 | 0.8625 mPa·s
303.15 K, x2 = 0.4193 | 0.8943 mPa·s
303.15 K, x2 = 0.5168 | 0.9291 mPa·s
303.15 K, x2 = 0.6428 | 0.97 mPa·s
303.15 K, x2 = 0.7459 | 1.002 mPa·s
303.15 K, x2 = 0.8153 | 1.023 mPa·s
303.15 K, x2 = 0.9277 | 1.059 mPa·s

CC/C(C)=N/O + C1CCCCC1
viscosity [mPa·s], 101.3 kPa
Details | x1 = 0.0972 | x1 = 0.1952 | x1 = 0.2926 | x1 = 0.3921 | x1 = 0.4913 | x1 = 0.5914 | x1 = 0.6926 | x1 = 0.7942 | x1 = 0.8967
293.15 K | 1.007 | 1.072 | 1.166 | 1.302 | 1.489 | 1.75 | 2.122 | 2.681 | 3.585
298.15 K | 0.923 | 0.982 | 1.065 | 1.182 | 1.339 | 1.567 | 1.884 | 2.347 | 3.035
303.15 K | 0.844 | 0.895 | 0.967 | 1.068 | 1.205 | 1.397 | 1.667 | 2.053 | 2.622

O=CO + CC#N
303.15 K, 101 kPa
Details | viscosity [mPa·s]
x1 = 0.0912 | 0.386
x1 = 0.1824 | 0.422
x1 = 0.2772 | 0.468
x1 = 0.3728 | 0.523
x1 = 0.4721 | 0.597
x1 = 0.5735 | 0.691
x1 = 0.6751 | 0.801
x1 = 0.7806 | 0.962
x1 = 0.8891 | 1.17

CC(Cl)(Cl)Cl + COC(C)=O
Details | viscosity
298.15 K, 101.33 kPa, x1 = 0.1 | 0.3907 mPa·s
298.15 K, 101.33 kPa, x1 = 0.101 | 0.3907 mPa·s
298.15 K, 101.33 kPa, x1 = 0.198 | 0.4156 mPa·s
298.15 K, 101.33 kPa, x1 = 0.199 | 0.4157 mPa·s
298.15 K, 101.33 kPa, x1 = 0.297 | 0.4438 mPa·s
298.15 K, 101.33 kPa, x1 = 0.3 | 0.445 mPa·s
298.15 K, 101.33 kPa, x1 = 0.398 | 0.4763 mPa·s
298.15 K, 101.33 kPa, x1 = 0.401 | 0.4774 mPa·s
298.15 K, 101.33 kPa, x1 = 0.499 | 0.513 mPa·s
298.15 K, 101.33 kPa, x1 = 0.5 | 0.5132 mPa·s and 0.5114 mPa·s
298.15 K, 101.33 kPa, x1 = 0.599 | 0.5525 mPa·s and 0.5545 mPa·s
298.15 K, 101.33 kPa, x1 = 0.699 | 0.6024 mPa·s
298.15 K, 101.33 kPa, x1 = 0.799 | 0.6574 mPa·s
298.15 K, 101.33 kPa, x1 = 0.901 | 0.7178 mPa·s
303.15 K, 101.3 kPa, x2 = 0.0993 | 0.6661 mPa·s
303.15 K, 101.3 kPa, x2 = 0.2042 | 0.6072 mPa·s
303.15 K, 101.3 kPa, x2 = 0.3008 | 0.5599 mPa·s
303.15 K, 101.3 kPa, x2 = 0.4008 | 0.5182 mPa·s
303.15 K, 101.3 kPa, x2 = 0.5039 | 0.4792 mPa·s
303.15 K, 101.3 kPa, x2 = 0.6038 | 0.4462 mPa·s
303.15 K, 101.3 kPa, x2 = 0.6968 | 0.4186 mPa·s
303.15 K, 101.3 kPa, x2 = 0.7992 | 0.3921 mPa·s
303.15 K, 101.3 kPa, x2 = 0.902 | 0.3668 mPa·s

CC/C(C)=N/O + CCCCCC
viscosity [mPa·s], 101.3 kPa
Details | x1 = 0.0993 | x1 = 0.1991 | x1 = 0.2977 | x1 = 0.3987 | x1 = 0.4972 | x1 = 0.5993 | x1 = 0.6977 | x1 = 0.7981 | x1 = 0.899
293.15 K | 0.345 | 0.393 | 0.461 | 0.556 | 0.69 | 0.899 | 1.213 | 1.729 | 2.695
298.15 K | 0.33 | 0.376 | 0.437 | 0.526 | 0.646 | 0.835 | 1.111 | 1.559 | 2.357
303.15 K | 0.315 | 0.357 | 0.414 | 0.495 | 0.605 | 0.776 | 1.019 | 1.411 | 2.09

CCC(N)C(=O)[O-].[K+] (configuration not stated) + O
viscosity [mPa·s], 101.3 kPa
Details | x1 = 0.009 | x1 = 0.019 | x1 = 0.029 | x1 = 0.039 | x1 = 0.05 | x1 = 0.06
303.15 K | 0.988 | 1.223 | 1.552 | 1.974 | 2.518 | 3.297
308.15 K | 0.884 | 1.093 | 1.394 | 1.74 | 2.206 | 2.877
313.15 K | 0.803 | 0.984 | 1.257 | 1.559 | 1.962 | 2.544
318.15 K | 0.728 | 0.89 | 1.133 | 1.399 | 1.757 | 2.257
323.15 K | 0.67 | 0.813 | 1.032 | 1.272 | 1.585 | 2.017

CC(Cl)(Cl)Cl + c1ccccc1
303.15 K, 101 kPa
Details | viscosity [mPa·s]
x1 = 0.1318 | 0.5946
x1 = 0.2306 | 0.614
x1 = 0.3381 | 0.6341
x1 = 0.4104 | 0.6461
x1 = 0.4894 | 0.6588
x1 = 0.5844 | 0.6709
x1 = 0.6716 | 0.6831
x1 = 0.7484 | 0.6926
x1 = 0.8648 | 0.706
x1 = 0.9221 | 0.7138

CC(Cl)(Cl)Cl + CC(C)=O
298.15 K, 101.33 kPa
Details | viscosity [mPa·s]
x1 = 0.102 | 0.3356
x1 = 0.2 | 0.3677
x1 = 0.302 | 0.4042
x1 = 0.401 | 0.4432
x1 = 0.501 | 0.4862
x1 = 0.549 | 0.5085
x1 = 0.551 | 0.5098
x1 = 0.601 | 0.5341
x1 = 0.649 | 0.5591
x1 = 0.651 | 0.56
x1 = 0.701 | 0.5875
x1 = 0.75 | 0.6158
x1 = 0.794 | 0.6443
x1 = 0.852 | 0.6824

CC(Cl)(Cl)Cl + CCCOCCC
298.15 K, 101.33 kPa
Details | viscosity [mPa·s]
x1 = 0.101 | 0.4245
x1 = 0.198 | 0.4478
x1 = 0.299 | 0.4745
x1 = 0.398 | 0.5036
x1 = 0.5 | 0.5365
x1 = 0.601 | 0.5733
x1 = 0.7 | 0.6147
x1 = 0.8 | 0.6632
x1 = 0.85 | 0.6907
